Assays:
[1] = tested on: MDA-MB-453; test: drug sensitivity score (DSS), single agent (DSS (weighted AUC score)); higher = more sensitive (stronger viability decrease); extreme values may be limits of the assay; conditions: BLU9931 0 nM; 72 h
Summary of the method: (§1)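 Each 384-well plate held compounds from the FIMM Oncology set, predispensed in singlicate at five 10-fold dilutions spanning a 10,000-fold range, and each well then received 2000 MDA-MB-453 cells in medium with or without an FGFR4 inhibitor at 100 nM final. Plates stayed at 37 °C, 5% CO2 for 72 h, after which cellular ATP was measured with CellTiterGlo 2.0. Readings were converted per plate into percent viability against control wells, and the drug sensitivity score was taken as a weighted area under a four-parameter logistic fit.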

[2] = tested on: MDA-MB-453; test: drug sensitivity score (DSS), in combination with BLU9931 (DSS (weighted AUC score)); higher = more sensitive (stronger viability decrease); extreme values may be limits of the assay; conditions: BLU9931 100 nM; 72 h
Summary of the method: as §1

Row | Compound | drug sensitivity score [1] | drug sensitivity score [2]
1 | Cc1nc(Nc2n[nH]c3c2CN(C(=O)N[C@H](CN(C)C)c2ccccc2)C3(C)C)c2sccc2n1 | 11.4 | 8.7
2 | CO[C@H]1C[C@@H]2CC[C@@H](C)[C@@](O)(O2)C(=O)C(=O)N2CCCC[C@H]2C(=O)O[C@H]([C@H](C)C[C@@H]2CC[C@@H](OC(=O)C(C)(CO)CO)[C@H](OC)C2)CC(=O)[C@H](C)/C=C(\C)[C@@H](O)[C@@H](OC)C(=O)[C@H](C)C[C@H](C)/C=C/C=C/C=C/1C [Temsirolimus] | 10.3 | 14.8
3 | Oc1nc(-c2ccc(C(F)(F)F)cc2)nc2c1CSCC2 [XAV-939] | 0.2 | 0.1
4 | COc1cccc2c1C(=O)c1c(O)c3c(c(O)c1C2=O)C[C@@](O)(/C(CO)=N/NC(=O)CCCCCN1C(=O)C=CC1=O)C[C@@H]3O[C@H]1C[C@H](N)[C@H](O)[C@H](C)O1 [Aldoxorubicin] | 5.8 | 5.4
5 | COc1cc2nccc(Oc3ccc(NC(=O)Nc4cc(C)on4)c(Cl)c3)c2cc1OC [Tivozanib] | 2.8 | 1.4
6 | Cc1c(-c2c(-c3ccc(F)o3)sc3ncnc(O[C@H](Cc4ccccc4OCc4ccnn4CC(F)(F)F)C(=O)O)c23)ccc(OCCN2CCN(C)CC2)c1Cl | 4.2 | 3.3
7 | CN(C)C1CCN(C(=O)c2ccc(NC(=O)Nc3ccc(-c4nc(N5CCOCC5)nc(N5CCOCC5)n4)cc3)cc2)CC1 [Gedatolisib] | 22.9 | 23.7
8 | N#CCNC(=O)c1ccc(-c2ccnc(Nc3ccc(N4CCOCC4)cc3)n2)cc1 [Momelotinib] | 4.7 | 2.2
9 | C[C@@H]1COCCN1c1cc(C2([S@](C)(=N)=O)CC2)nc(-c2cc[nH]c3nccc2-3)n1 [AZD6738] | 11 | 10.7
10 | Cc1cc(C)c(CNC(=O)c2cc(-c3ccc(CN4CCOCC4)cc3)cc3c2cnn3C2CCCC2)c(=O)[nH]1 [EPZ-5687] | 0.5 | 0
11 | O=C(CCCCCCC(=O)Nc1ccccc1)NO [Vorinostat] | 16.4 | 15.6
12 | Cn1ncnc1[C@H]1c2n[nH]c(=O)c3cc(F)cc(c23)N[C@@H]1c1ccc(F)cc1 [Talazoparib] | 1.7 | 3.1
13 | COC[C@H](NC(=O)c1cnc(C)s1)C(=O)N[C@@H](COC)C(=O)N[C@@H](Cc1ccccc1)C(=O)[C@@]1(C)CO1 [Oprozomib] | 14.8 | 12.3
14 | CC(C)c1cc(-c2n[nH]c(=O)n2-c2ccc3c(ccn3C)c2)c(O)cc1O [Ganetespib] | 18.7 | 18.5
15 | CCCN(CCC)C(=O)C1=Cc2ccc(-c3ccc(C(=O)N4CCCC4)cc3)cc2N=C(N)C1 [Motolimod] | 0.1 | 0
16 | Cc1ccc(=O)n(-c2ccccc2)c1 [Pirfenidone] | 0 | 0
17 | CNC(=O)c1cccc(-c2ccc3c(N4CCOC[C@@H]4C)nc(N4CCOC[C@@H]4C)nc3n2)c1 [Vistusertib] | 16.3 | 16.9
18 | Cc1cc2c(F)c(Oc3ncnn4cc(OC[C@@H](C)O)c(C)c34)ccc2[nH]1 [Brivanib] | 0 | 0
19 | CC[C@]12C=CCN3CC[C@@]4(c5cc([C@@]6(C(=O)OC)C[C@@H]7C[C@@H](C(C)(F)F)CN(Cc8c6[nH]c6ccccc86)C7)c(OC)cc5N(C)[C@H]4[C@@](O)(C(=O)OC)[C@@H]1OC(C)=O)[C@@H]32 [Vinflunine] | 2.6 | 1.3
20 | Nc1nc(Cl)nc2c1ncn2[C@@H]1O[C@H](CO)[C@@H](O)[C@@H]1F [Clofarabine] | 4.4 | 3.9
21 | FC(F)(F)c1ccc(/C=C/c2nc(COc3ccc(CCCCn4ccnn4)cc3)co2)cc1 [Mubritinib] | 7.8 | 4
22 | COc1cc2c(NC3CCN(C(C)C)CC3)nc(N3CCC(F)(F)CC3)nc2cc1OCCCN1CCCC1 [UNC0642] | 2.1 | 1.4
23 | C[C@H]1C[C@@H](n2c(Nc3ccc(OC(F)(F)F)cc3)nc3cc(CCC(=O)O)ccc32)CC(C)(C)C1 | 0 | 0
24 | CN1CCN(C(=O)c2ccc3cc(CCNc4ncnc5ccc(C#N)cc45)ccc3c2)CC1 [Senexin B] | 2.4 | 1.3
25 | C[C@@H](C(=O)O)c1ccc(-c2ccccc2)c(F)c1 [Tarenflurbil] | 0 | 0
26 | C[C@@H]1CN(C(=O)c2ccc(NC(=O)c3cc(O[C@H](C)c4c(Cl)ccc(F)c4Cl)c(N)nn3)cc2)C[C@H](C)N1 [Ensartinib] | 0 | 0
27 | CC[C@]1(O)C[C@@H]2CN(CCc3c([nH]c4ccccc34)[C@@](C(=O)OC)(c3cc4c(cc3OC)N(C)[C@H]3[C@@](O)(C(=O)OC)[C@H](OC(C)=O)[C@]5(CC)C=CCN6CC[C@]43[C@@H]65)C2)C1 [Vinblastine] | 10 | 8.4

Row | Compound | drug sensitivity score [1] | drug sensitivity score [2]
28 | COc1ccc(-c2ccc3ncc4c(c3c2)n(-c2ccc(N3CCNCC3)c(C(F)(F)F)c2)c(=O)n4C)cn1 [NVP-BGT226] | 24.8 | 24.4
29 | COc1cc(N2CCC(N3CCN(C)CC3)CC2)ccc1Nc1ncnc(Nc2ccccc2S(=O)(=O)C(C)C)n1 [ASP3026] | 0.8 | 0.3
30 | CCn1c(-c2nonc2N)nc2cnc(Oc3cccc(NC(=O)c4ccc(OCCN5CCOCC5)cc4)c3)cc21 | 3.9 | 3.8
31 | Cc1cnc(Nc2ccc(OCCN3CCCC3)cc2)nc1Nc1cccc(S(=O)(=O)NC(C)(C)C)c1 [Fedratinib] | 8.3 | 6.3
32 | C[C@@H]1CN(Cc2ccc(F)cc2)[C@@H](C)CN1C(=O)c1cc2c(C(=O)C(=O)N(C)C)cn(C)c2cc1Cl [Talmapimod] | 0 | 0
33 | c1cc(CN2CCCNCCNCCCNCC2)ccc1CN1CCCNCCNCCCNCC1 [Plerixafor] | 0 | 0
34 | OC[C@H]1O[C@@H](n2cnc3c2N=CNC[C@H]3O)C[C@@H]1O [Pentostatin] | 1 | 0
35 | CC/C(=C(\c1ccc(O)cc1)c1ccc(OCCN(C)C)cc1)c1ccccc1 [4-hydroxytamoxifen] | 4.8 | 4.5
36 | Nc1ccccc1NC(=O)c1ccc(CNC(=O)OCc2cccnc2)cc1 [Entinostat] | 9.2 | 8.7
37 | O=C(c1cccc(Cl)c1F)N1CCN(Cc2cccc(Nc3nccs3)n2)CC1 [MK-8745] | 5.4 | 2.4
38 | C/C=C1\NC(=O)[C@H]2CSSCC/C=C/[C@H](CC(=O)N[C@H](C(C)C)C(=O)N2)OC(=O)[C@H](C(C)C)NC1=O [Romidepsin] | 32 | 33.3
39 | CCCCNc1ncc(C(=O)NCc2ccc(-n3ccnc3)cc2)c(NC2CCC(O)CC2)n1 (stereo unspecified) [UNC2881] | 0 | 0
40 | NC(=S)N/N=C/c1ncccc1N [Triapine] | 0.1 | 1.3
41 | CCN1CCN(c2ccc(Nc3cc(N(C)C(=O)Nc4c(Cl)c(OC)cc(OC)c4Cl)ncn3)cc2)CC1 [Infigratinib] | 0 | 0
42 | O=C(Nc1ccc(OC(F)(F)Cl)cc1)c1cnc(N2CC[C@@H](O)C2)c(-c2cc[nH]n2)c1 [Asciminib] | 3.4 | 1.2
43 | O=C(O)C1(C(=O)O)CCC1.[NH2-].[NH2-].[Pt+2] [Carboplatin] | 2.2 | 2.6
44 | C[C@@]1(C(=O)Nc2ccc(F)nc2)CCCN1c1nc(Nc2cc(C3CC3)n[nH]2)c2cccn2n1 | 0 | 0
45 | COc1ccc(Cn2ccc3ccc(C(=O)NO)cc32)cc1 | 0.8 | 2.3
46 | CONC(=O)c1ccccc1Nc1cc(Nc2cc(C)nn2C(C)C)ncc1Cl | 0.8 | 0.5
47 | CC(C)Oc1ccc(C(=O)N[C@H](CNC(=O)CN(C)C)Cc2ccc(-c3cn4cccc([C@H](C)O)c4n3)cc2)cc1Cl | 14.3 | 8.8
48 | CC(C)NC[C@@H](C(=O)N1CCN(c2ncnc3c2[C@H](C)C[C@H]3O)CC1)c1ccc(Cl)cc1 [Ipatasertib] | 11 | 12
49 | CCC1(c2ccc(N)cc2)CCC(=O)NC1=O (stereo unspecified) [Aminoglutethimide] | 0 | 1.3
50 | C=CC[C@@H]1/C=C(\C)C[C@H](C)C[C@H](OC)[C@H]2O[C@@](O)(C(=O)C(=O)N3CCCC[C@H]3C(=O)O[C@H](/C(C)=C/[C@@H]3CC[C@@H](O)[C@H](OC)C3)[C@H](C)[C@@H](O)CC1=O)[C@H](C)C[C@@H]2OC [Tacrolimus] | 2.2 | 0.8
51 | CC(C)(O)CNc1nc(Nc2ccnc(C(F)(F)F)c2)nc(-c2cccc(C(F)(F)F)n2)n1 [Enasidenib] | 0 | 0.1
52 | CS(=O)(=O)c1ccc(C(=O)Nc2ccc(Cl)c(-c3ccccn3)c2)c(Cl)c1 [Vismodegib] | 0 | 0
53 | Cc1ccc(C(=O)N(CCCN)[C@@H](c2oc3cc(Cl)ccc3c(=O)c2Cc2ccccc2)C(C)C)cc1 | 5.3 | 1.8

Reference: the supplement of paper PMC7224384
